Entries after “also recorded” stand apart in the source; their conditions may differ.
Tests used:
[1] = test system: C57BL/6NTac female mice, tibia holes; assay: Bone wound healing in drilled mouse tibias (high resolution CT); format: in vivo; settings: day 21
Method: Eighteen C57BL/6NTac female mice were divided into 2 groups of 9 mice. The first group was placed on water containing 400 μM MMS350. One week later the MMS350 mice were injected IP with 20 mg/kg MMS350 in water 15 minutes before irradiation. The control mice and the MMS350 treated mice were anesthetized with Nembutal and the right hind leg was irradiated to 20 Gy with the remainder of the mouse shielded from the irradiation. Twenty-four hours later holes were drilled into the tibias of all the mice. The MMS350 treated mice were kept on the MMS350 with the water changed weekly. Twenty-one days later the mice were sacrificed and both tibias removed, and fixed. The tibias were imaged using a high resolution CT. The holes in the tibias were measured and the volume of the holes determined.

PKD1 = molecular target: T1, PKD1 (Homo sapiens, UniProt Q15139); assay: Radiometric PKD1 inhibition assay; format: biochemical; settings: stock solutions in 25% 3/NMP
T1 sequence (Q15139 1-912): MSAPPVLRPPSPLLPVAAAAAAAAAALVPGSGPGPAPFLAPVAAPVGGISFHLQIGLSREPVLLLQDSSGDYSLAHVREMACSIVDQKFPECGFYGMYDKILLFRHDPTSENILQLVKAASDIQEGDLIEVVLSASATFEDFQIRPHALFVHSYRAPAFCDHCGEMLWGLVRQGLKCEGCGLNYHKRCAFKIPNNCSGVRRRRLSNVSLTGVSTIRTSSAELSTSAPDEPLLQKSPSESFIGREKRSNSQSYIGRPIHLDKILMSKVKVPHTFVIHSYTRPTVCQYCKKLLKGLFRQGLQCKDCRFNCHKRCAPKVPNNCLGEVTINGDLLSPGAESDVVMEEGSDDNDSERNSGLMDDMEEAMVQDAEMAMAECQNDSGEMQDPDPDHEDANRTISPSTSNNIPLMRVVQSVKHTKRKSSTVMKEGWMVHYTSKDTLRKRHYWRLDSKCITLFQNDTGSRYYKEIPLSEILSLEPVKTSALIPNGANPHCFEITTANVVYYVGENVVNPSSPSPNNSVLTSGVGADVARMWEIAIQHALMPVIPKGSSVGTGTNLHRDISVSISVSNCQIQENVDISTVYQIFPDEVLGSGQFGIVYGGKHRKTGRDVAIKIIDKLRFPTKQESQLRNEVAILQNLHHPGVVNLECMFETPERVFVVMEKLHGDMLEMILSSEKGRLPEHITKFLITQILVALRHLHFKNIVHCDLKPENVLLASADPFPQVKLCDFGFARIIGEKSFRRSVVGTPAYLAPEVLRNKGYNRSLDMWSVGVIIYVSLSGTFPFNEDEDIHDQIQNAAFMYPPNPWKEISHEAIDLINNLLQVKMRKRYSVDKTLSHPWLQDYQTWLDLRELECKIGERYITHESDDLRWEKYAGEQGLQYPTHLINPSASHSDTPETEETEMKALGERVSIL
Excerpt: Recently, a series of compounds with nanomolar to micromolar inhibitory activity against the serine/threonine protein kinase D (PKD) isoform PKD1 was disclosed (FIG. 7). Several lead structures, especially those containing a pyrimidine moiety, suffered from poor solubility not only in aqueous media but also in DMSO. To test the feasibility of using sulfoxide 3 as a cosolvent for in vitro assays, its use in the radiometric PKD1 inhibition assay was examined. Inhibitory activity at two concentrations (1 μM and 10 μM) was measured using compound stock solutions in three formulations: DMSO, NMP, and 25% 3/NMP (FIGS. 8 and 9).

[2] = test system: C57BL/6NTac mice, 20 Gy thoracic irradiation; assay: Radiation pulmonary fibrosis after 20 Gy thoracic irradiation; format: in vivo, mouse; settings: MMS350 in drinking water
Excerpt: For lung irradiation, mice were irradiated to the thoracic cavity with shielding of the head and neck region and abdomen and lower body according to published methods. Animals received 20 Gy single fraction thoracic irradiation and were then maintained according to IACUC directed laboratory conditions. Mice were sacrificed at serial time points after thoracic irradiation including pre-irradiation, days 2, 7, 14, 28, 50, 75, 100, 110, 150 and 200 post-irradiation. Lungs were removed and sagittal sections assayed for percent of lung replaced by fibroblasts and organizing alveolitis according to published methods. Representative lung lobes from the same animals were tested by RT-PCR for level of detectable message for inflammatory cytokines, redox sensitive promoters, and levels of MnSOD.
Lungs from irradiated and luc+ cell line injected mice were removed and serial sectioned. Sections were stained for luc+, GFP+ cells, BrdU incorporation, and for quantitation of percent lung replaced by fibrosis (organizing alveolitis) according to published methods.
Mice were injected intra-peritoneally with MMS350 or JP4-039 (GS-nitroxide) in 50% cremphor/50% ethanol according to published methods. For long-term administration of MMS350, the drug was administered in water bottles with bottles changed every 7 days. The dose of drug per bottle was 100 μM MMS350 starting on day 88. The estimated total amount consumed by each animal daily was 10.9 μg based on a mouse drinking 5 ml of water per day. Chimeric mice irradiated to the thoracic cavity were placed 30 days later on MMS350 in water containing 100 mM MMS350. On day 88 after thoracic irradiation of non-chimeric mice, mice were placed on […] MMS350 in drinking water.

[3] = test system: bone marrow stromal cell line derived from C57BL/6NTac mice; assay: In vitro clonogenic radiation survival curves; format: cell-based, mouse; settings: 0 to 8 Gy
Method: FIG. 12A is a graph of surviving fraction versus radiation dose, illustrating the in vitro radioprotection and mitigation of bone marrow stromal cells. In vitro survival curves were performed using a bone marrow stromal cell line derived from C57BL/6NTac mice. Cells were incubated in 100 μM MMS350 for one hour before irradiation or was added to the cells 10 min after irradiation. Cells were irradiated to doses ranging from 0 to 8 Gy, plated in 4 well tissue culture plates, incubated for 7 days at 37° C. in a humidified CO2 incubator, and stained with crystal violet. Colonies of greater than 50 cells were counted and analyzed using a linear quadratic model or single-hit, multi-target model.
The murine C57BL/6 bone marrow stromal cell line (Epperly M W, Sikora C A, Defilippi S, Gretton J E, Greenberger J S. Bone marrow origin of myofibroblasts in irradiation pulmonary fibrosis. Am J Resp Molecular Cell Biology 2003; 29:213-224) and its use in clonogenic radiation survival curves has been described (Epperly M W, Gretton J E, Bernarding M, Nie S, Rasul B, Greenberger J S. Mitochondrial localization of copper/zinc superoxide dismutase (Cu/ZnSOD) confers radioprotective functions in vitro and in vivo. Radiation Research 2003; 160:568-578).
Cell lines were irradiated at dose rate of 70 cGy per minute using a Cesium Gamma Cell Irradiator according to published methods. […]

Structure (SMILES): CC1(C[S+]([O-])CC2(C)COC2)COC1 [Compound 3, 3,3′-Sulfinylbis(methylene)bis(3-methyloxetane)]
- diameter of tibia hole ([1]; 0 Gy tibia vs control 0 Gy, 400 μM in water plus 20 mg/kg IP): significantly smaller
- volume of tibia hole ([1]; 0 Gy+ MMS350 vs control 20 Gy irradiated tibia): significantly smaller
- diameter of tibia hole ([1]; 20 Gy irradiated tibia vs control 20 Gy): significantly smaller
- volume of tibia hole ([1]; 20 Gy+ MMS350 vs control 20 Gy irradiated tibia): significantly smaller
- interference with PKD1 inhibition assay (PKD1): did not interfere with the standard PKD1 inhibition assay
- survival ([2]; 20 Gy thoracic irradiated mice): significantly increased survival
- pulmonary fibrosis ([2]; 20 Gy thoracic irradiation): decreased radiation pulmonary fibrosis; also recorded: significant decrease in pulmonary fibrosis
- Percent Pulmonary Fibrosis ([2]; thoracic-irradiated mice, −MMS350 20.8 ± 3.9, p < 0.0001): 3.6 ± 1.1%
- D0 ([3]; 100 μM MMS350 added 10 min after irradiation, control 1.9±0.1, p=0.0444): 2.4±0.3
- shoulder on the survival curve (ñ) ([3]; 100 μM MMS350 for one hour before irradiation, control 5.8±1.1, p=0.0039): 14.9±2.9

— patent US10251860B2, “Compounds for bone healing” (University of Pittsburgh—Of the Commonwealth System of …, priority 2015, dated 2019)
